Measurements published in patent US11542240B2, “STK19 inhibitors for treatment of cancer” (TRUSTEES OF BOSTON UNIVERSITY, priority 2018, dated 2023).
Read-outs that look alike come from different tables or passages of the source.

What was measured:
Experiment in all cases: biochemical
Type in all cases: binding
[1] = target: panel of 468 diverse kinases (Homo sapiens, UniProt Q86Y07); conditions: VRK2; 1000 nM; read-out: Percent Control
[2] = target: panel of 468 diverse kinases (Homo sapiens, UniProt P50613); conditions: CDK7; 1000 nM; read-out: Percent Control
[3] = target: panel of 468 diverse kinases (Homo sapiens, UniProt O95747); conditions: OSR1; 1000 nM; read-out: Percent Control
[4] = target: panel of 468 diverse kinases (Homo sapiens, UniProt P42345); conditions: MTOR; 1000 nM; read-out: Percent Control
[5] = target: panel of 468 diverse kinases (Homo sapiens, UniProt Q9HCP0); conditions: CSNK1G1; 1000 nM; read-out: Percent Control
[6] = target: panel of 468 diverse kinases (Homo sapiens, UniProt P36896); conditions: ACVR1B; 1000 nM; read-out: Percent Control
Sequence of panel of 468 diverse kinases (Homo sapiens, UniProt P36896) (P36896 24-505 limits assumed): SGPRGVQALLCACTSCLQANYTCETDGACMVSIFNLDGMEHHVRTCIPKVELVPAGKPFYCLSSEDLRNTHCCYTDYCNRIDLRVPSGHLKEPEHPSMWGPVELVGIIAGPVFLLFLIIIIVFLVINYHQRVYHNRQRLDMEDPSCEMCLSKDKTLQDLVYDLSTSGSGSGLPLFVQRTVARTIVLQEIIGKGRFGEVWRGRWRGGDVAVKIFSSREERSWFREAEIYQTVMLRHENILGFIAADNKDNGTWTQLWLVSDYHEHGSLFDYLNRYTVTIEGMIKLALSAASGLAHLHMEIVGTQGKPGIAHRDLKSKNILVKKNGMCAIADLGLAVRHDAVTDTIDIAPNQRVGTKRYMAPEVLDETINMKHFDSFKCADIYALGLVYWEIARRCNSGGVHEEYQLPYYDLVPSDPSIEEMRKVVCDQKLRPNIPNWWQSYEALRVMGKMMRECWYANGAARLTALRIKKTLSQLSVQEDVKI

[7] = target: panel of 468 diverse kinases (Homo sapiens, UniProt P15735); conditions: PHKG2; 1000 nM; read-out: Percent Control
[8] = target: panel of 468 diverse kinases (Homo sapiens, UniProt P54646); conditions: AMPK-alpha2; 1000 nM; read-out: Percent Control
[9] = target: panel of 468 diverse kinases (Homo sapiens, UniProt P35968); conditions: VEGFR2; 1000 nM; read-out: Percent Control
[10] = target: panel of 468 diverse kinases (Homo sapiens, UniProt P10721, L576P); conditions: KIT(L576P); 1000 nM; read-out: Percent Control
Sequence of panel of 468 diverse kinases (Homo sapiens, UniProt P10721, L576P) (P10721 26-976 L576P limits assumed): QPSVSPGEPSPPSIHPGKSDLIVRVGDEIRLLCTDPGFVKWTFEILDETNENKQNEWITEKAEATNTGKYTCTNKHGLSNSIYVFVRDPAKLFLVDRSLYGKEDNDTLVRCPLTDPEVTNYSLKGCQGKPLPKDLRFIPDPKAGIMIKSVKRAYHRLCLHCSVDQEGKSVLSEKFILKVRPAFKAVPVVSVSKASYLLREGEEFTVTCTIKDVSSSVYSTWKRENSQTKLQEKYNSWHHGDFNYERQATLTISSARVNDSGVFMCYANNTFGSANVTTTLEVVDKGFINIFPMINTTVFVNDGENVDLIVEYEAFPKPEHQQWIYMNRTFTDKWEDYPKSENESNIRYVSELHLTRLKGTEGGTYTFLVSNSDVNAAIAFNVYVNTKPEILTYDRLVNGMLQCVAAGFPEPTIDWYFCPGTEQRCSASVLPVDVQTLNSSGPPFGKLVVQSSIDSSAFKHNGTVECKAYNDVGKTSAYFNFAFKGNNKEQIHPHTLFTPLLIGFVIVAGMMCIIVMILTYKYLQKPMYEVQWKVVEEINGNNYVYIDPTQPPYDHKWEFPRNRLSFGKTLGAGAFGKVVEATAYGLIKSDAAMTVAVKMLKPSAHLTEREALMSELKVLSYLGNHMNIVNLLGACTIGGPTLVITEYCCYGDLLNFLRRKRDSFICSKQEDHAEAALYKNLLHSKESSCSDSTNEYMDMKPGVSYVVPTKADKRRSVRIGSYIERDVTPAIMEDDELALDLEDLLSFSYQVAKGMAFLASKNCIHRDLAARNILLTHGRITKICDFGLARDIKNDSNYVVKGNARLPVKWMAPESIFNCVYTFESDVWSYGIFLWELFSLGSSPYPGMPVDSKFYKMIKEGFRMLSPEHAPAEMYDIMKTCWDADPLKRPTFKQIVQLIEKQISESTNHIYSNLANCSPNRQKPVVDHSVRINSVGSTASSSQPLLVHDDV

[11] = target: panel of 468 diverse kinases (Homo sapiens, UniProt P21709); conditions: EPHA1; 1000 nM; read-out: Percent Control
Sequence of panel of 468 diverse kinases (Homo sapiens, UniProt P21709) (P21709 26-976 limits assumed): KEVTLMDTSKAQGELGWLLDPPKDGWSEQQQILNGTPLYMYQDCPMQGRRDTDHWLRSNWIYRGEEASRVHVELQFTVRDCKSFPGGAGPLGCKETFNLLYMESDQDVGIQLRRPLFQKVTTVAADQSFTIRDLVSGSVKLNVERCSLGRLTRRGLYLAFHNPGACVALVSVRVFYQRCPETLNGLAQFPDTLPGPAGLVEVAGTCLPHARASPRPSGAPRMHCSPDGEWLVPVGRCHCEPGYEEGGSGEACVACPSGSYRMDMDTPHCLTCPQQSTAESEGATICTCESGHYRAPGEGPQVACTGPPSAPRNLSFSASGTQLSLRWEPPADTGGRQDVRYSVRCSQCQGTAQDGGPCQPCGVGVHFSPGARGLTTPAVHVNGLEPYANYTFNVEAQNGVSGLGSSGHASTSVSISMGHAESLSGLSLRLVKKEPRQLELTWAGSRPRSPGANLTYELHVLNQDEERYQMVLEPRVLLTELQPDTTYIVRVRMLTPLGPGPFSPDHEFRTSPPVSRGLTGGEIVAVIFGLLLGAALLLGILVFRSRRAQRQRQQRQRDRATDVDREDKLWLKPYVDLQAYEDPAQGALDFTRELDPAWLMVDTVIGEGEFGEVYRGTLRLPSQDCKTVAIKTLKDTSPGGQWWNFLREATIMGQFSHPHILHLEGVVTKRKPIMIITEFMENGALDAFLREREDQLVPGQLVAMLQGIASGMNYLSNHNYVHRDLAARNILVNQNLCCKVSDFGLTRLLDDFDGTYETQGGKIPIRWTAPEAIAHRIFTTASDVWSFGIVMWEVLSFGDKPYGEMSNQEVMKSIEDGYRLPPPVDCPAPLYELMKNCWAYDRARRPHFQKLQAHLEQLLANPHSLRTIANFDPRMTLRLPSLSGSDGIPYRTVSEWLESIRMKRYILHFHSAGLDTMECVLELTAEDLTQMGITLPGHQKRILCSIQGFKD

[12] = target: panel of 468 diverse kinases (Homo sapiens, UniProt Q00536); conditions: PCTK1; 1000 nM; read-out: Percent Control
[13] = target: panel of 468 diverse kinases (Homo sapiens, UniProt Q9Y6M4); conditions: CSNK1G3; 1000 nM; read-out: Percent Control
[14] = target: panel of 468 diverse kinases (Homo sapiens, UniProt Q9Y2I7); conditions: PIKFYVE; 1000 nM; read-out: Percent Control
[15] = target: panel of 468 diverse kinases (Homo sapiens, UniProt P30291); conditions: WEE1; 1000 nM; read-out: Percent Control
[16] = target: panel of 468 diverse kinases (Homo sapiens, UniProt Q56UN5); conditions: YSK4; 1000 nM; read-out: Percent Control
[17] = target: panel of 468 diverse kinases (Homo sapiens, UniProt P45983); conditions: JNK1; 1000 nM; read-out: Percent Control
[18] = target: panel of 468 diverse kinases (Homo sapiens, UniProt Q16816); conditions: PHKG1; 1000 nM; read-out: Percent Control
[19] = target: panel of 468 diverse kinases (Homo sapiens, UniProt P51956); conditions: NEK3; 1000 nM; read-out: Percent Control
[20] = target: panel of 468 diverse kinases (Homo sapiens, UniProt Q8TBX8); conditions: PIP5K2C; 1000 nM; read-out: Percent Control
[21] = target: panel of 468 diverse kinases (Homo sapiens, UniProt P23443); conditions: S6K1; 1000 nM; read-out: Percent Control
[22] = target: panel of 468 diverse kinases (Homo sapiens, UniProt Q9NRM7); conditions: LATS2; 1000 nM; read-out: Percent Control
[23] = target: panel of 468 diverse kinases (Homo sapiens, UniProt Q14680); conditions: MELK; 1000 nM; read-out: Percent Control
[24] = target: panel of 468 diverse kinases (Homo sapiens, UniProt Q9P289); conditions: MST4; 1000 nM; read-out: Percent Control
Sequence of panel of 468 diverse kinases (Homo sapiens, UniProt Q9P289) (Q9P289 2-416 limits assumed): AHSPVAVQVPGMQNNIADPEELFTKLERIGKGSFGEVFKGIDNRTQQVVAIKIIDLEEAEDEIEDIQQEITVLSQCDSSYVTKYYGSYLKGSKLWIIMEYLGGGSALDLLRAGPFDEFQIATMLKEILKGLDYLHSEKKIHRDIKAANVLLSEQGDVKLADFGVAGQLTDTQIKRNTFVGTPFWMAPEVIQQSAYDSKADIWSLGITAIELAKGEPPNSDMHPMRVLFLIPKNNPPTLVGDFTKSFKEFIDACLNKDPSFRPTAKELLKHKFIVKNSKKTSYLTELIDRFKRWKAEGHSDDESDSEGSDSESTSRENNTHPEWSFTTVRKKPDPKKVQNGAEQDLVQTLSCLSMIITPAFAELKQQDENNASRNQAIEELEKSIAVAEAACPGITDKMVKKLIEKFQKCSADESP

[25] = target: panel of 468 diverse kinases (Homo sapiens, UniProt O14936); conditions: CASK; 1000 nM; read-out: Percent Control
[26] = target: panel of 468 diverse kinases (Homo sapiens, UniProt P21802); conditions: FGFR2; 1000 nM; read-out: Percent Control
[27] = target: panel of 468 diverse kinases (Homo sapiens, UniProt O75676); conditions: 1000 nM, read-out: Percent Control
[28] = target: panel of 468 diverse kinases (Homo sapiens, UniProt O15197); conditions: EPHB6; 1000 nM; read-out: Percent Control
Sequence of panel of 468 diverse kinases (Homo sapiens, UniProt O15197) (O15197 32-1021 limits assumed): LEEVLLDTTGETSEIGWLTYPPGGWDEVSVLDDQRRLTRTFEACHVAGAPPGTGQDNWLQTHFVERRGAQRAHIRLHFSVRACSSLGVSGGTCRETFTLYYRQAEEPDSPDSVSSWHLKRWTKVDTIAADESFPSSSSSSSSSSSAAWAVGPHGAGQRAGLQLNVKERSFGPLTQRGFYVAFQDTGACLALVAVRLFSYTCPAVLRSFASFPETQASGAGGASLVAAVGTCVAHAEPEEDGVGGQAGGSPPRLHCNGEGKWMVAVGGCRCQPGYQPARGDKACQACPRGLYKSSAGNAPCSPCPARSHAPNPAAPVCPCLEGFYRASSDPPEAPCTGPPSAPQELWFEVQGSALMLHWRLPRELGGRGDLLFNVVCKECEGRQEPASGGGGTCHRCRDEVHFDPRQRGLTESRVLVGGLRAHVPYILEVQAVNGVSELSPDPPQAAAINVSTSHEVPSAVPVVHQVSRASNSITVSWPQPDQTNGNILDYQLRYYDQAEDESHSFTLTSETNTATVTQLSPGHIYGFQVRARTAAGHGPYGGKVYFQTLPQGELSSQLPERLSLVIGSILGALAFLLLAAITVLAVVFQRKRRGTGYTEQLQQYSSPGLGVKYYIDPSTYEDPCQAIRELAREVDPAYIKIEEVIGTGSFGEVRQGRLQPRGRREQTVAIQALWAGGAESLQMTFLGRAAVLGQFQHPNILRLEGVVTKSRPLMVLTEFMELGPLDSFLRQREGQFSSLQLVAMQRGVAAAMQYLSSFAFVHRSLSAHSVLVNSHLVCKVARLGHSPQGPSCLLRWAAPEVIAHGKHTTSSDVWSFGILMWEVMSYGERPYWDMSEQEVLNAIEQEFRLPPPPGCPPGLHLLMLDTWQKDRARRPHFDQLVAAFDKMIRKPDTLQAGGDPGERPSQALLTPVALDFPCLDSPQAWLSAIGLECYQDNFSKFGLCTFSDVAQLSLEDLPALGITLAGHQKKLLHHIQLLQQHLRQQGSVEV

[29] = target: panel of 468 diverse kinases (Homo sapiens, UniProt P00519, Q252H); conditions: 1000 nM, read-out: Percent Control
[30] = target: panel of 468 diverse kinases (Homo sapiens, UniProt P00533, DEL746-750); conditions: EGFR(E746-A750del); 1000 nM; read-out: Percent Control
Sequence of panel of 468 diverse kinases (Homo sapiens, UniProt P00533, DEL746-750) (P00533 with tags, fused parts or gaps DEL746-750 limits assumed): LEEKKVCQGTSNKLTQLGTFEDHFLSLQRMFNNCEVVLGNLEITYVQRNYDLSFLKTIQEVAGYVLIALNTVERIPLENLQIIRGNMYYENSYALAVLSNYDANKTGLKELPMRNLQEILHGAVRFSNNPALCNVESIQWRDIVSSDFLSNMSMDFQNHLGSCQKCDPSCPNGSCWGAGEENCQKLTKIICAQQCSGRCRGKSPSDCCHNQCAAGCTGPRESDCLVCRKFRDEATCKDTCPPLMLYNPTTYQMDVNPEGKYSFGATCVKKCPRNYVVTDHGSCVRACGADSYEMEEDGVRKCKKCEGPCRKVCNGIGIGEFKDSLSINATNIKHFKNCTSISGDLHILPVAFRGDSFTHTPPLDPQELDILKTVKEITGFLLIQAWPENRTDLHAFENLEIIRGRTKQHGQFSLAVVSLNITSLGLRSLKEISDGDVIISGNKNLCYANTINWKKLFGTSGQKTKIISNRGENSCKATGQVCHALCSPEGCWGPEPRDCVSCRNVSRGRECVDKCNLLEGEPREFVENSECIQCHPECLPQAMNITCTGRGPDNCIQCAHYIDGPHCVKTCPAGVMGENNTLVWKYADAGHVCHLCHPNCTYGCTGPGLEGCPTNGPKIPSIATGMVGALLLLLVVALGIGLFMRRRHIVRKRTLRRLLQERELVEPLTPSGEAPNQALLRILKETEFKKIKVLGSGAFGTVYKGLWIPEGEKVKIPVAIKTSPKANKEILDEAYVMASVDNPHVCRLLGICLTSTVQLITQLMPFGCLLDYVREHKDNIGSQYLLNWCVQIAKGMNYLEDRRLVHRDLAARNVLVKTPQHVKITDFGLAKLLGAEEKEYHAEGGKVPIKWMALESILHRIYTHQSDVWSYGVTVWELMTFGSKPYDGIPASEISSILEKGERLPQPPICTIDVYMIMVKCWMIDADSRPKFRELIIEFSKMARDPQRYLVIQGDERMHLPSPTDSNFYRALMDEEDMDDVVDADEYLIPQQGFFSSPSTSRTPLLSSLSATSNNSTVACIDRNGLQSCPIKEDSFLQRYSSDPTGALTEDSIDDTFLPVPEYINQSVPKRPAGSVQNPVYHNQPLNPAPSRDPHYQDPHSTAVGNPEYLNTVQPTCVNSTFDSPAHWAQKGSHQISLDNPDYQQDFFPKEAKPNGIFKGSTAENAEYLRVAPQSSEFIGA

COc1cc2nc(NC3CC3)nc(NC3CCN(C(C)C)CC3)c2cc1OC [Formula IV]
remaining activity at 1 µM [1]: 56%
remaining activity at 1 µM [2]: 69%
remaining activity at 1 µM [3]: 73%
remaining activity at 1 µM [4]: 87%
remaining activity at 1 µM [5]: 100%
remaining activity at 1 µM [6]: 94%
remaining activity at 1 µM [7]: 83%
remaining activity at 1 µM [8]: 93%
remaining activity at 1 µM [9]: 45%
remaining activity at 1 µM [10]: 100%
remaining activity at 1 µM [11]: 100%
remaining activity at 1 µM [12]: 43%
remaining activity at 1 µM [13]: 100%
remaining activity at 1 µM [14]: 96%
remaining activity at 1 µM [15]: 100%
remaining activity at 1 µM [16]: 78%
remaining activity at 1 µM [17]: 52%
remaining activity at 1 µM [18]: 90%
remaining activity at 1 µM [19]: 50%
remaining activity at 1 µM [20]: 80%
remaining activity at 1 µM [21]: 50%
remaining activity at 1 µM [22]: 95%
remaining activity at 1 µM [23]: 85%
remaining activity at 1 µM [24]: 82%
remaining activity at 1 µM [25]: 60%
remaining activity at 1 µM [26]: 100%
remaining activity at 1 µM ([27]; RPS6KA4(Kin.Dom.1-N-terminal)): 90%
remaining activity at 1 µM ([27]; RPS6KA4(Kin.Dom.2-C-terminal)): 46%
remaining activity at 1 µM [28]: 81%
remaining activity at 1 µM ([29]; ABL1(Q252H)-nonphosphorylated): 84%
remaining activity at 1 µM ([29]; ABL1(Q252H)-phosphorylated): 69%
remaining activity at 1 µM [30]: 63%
